Measured values reported in US20130158041A1, “Tyrosine Kinase Inhibitors” (priority 2010, published 2013).

Tested on: HGF-dependent scattering phenotype of HPAF-II cells
Experiment: HPAF scatter assay
Assay type: cell-based
Details: Homo sapiens, 4 ng/ml HGF, 22 hrs, read-out: inhibitory activity (IC50), scattering phenotype
Experimental: The ability of compounds to inhibit the HGF-dependent scattering phenotype of HPAF-II cells was measured using a modified version of the assay described by Chan et al. 2008 (Chan et al. J. Biomolec. Screening 2008; 13:847-854). Briefly, HPAF-II cells (ATCC #CRL1997) were plated in 50 uL DMEM (#11995)+10% FBS+P/S at a density of 3,000 cells/well in Costar black clear bottom 384-well plates [Product no. 3712] and incubated at 37° C. overnight. The next day, […] of serially diluted compound in DMSO was added to each well in the cell plate to give a nine-point 1:3 dilution series with final concentrations ranging from 20 uM to 3 nM. Cells were preincubated with compound at 37° C. for one hour. To stimulate the scattering phenotype, 10 uL of 24 ng/ml HGF (R&D Systems 294-HGN) was next added to each well, giving a final concentration of 4 ng/ml HGF. Cells were incubated with both compound and HGF at 37° C. for an additional 22 hrs. Control […] wells without compound treatment and control wells without HGF or compound were included on each plate. Next, to visualize the cells, each plate was washed in PBS 1×, fixed in ice cold methanol for 3 min at RT, washed in PBS 3×, stained with Hoechst (1:2500) in PBS/0.1% Triton for 15 min in the dark, and finally washed in PBS 4× before imaging on an INCell Analyzer 1000 (GE Healthcare). Individual cell by cell SOI internuclear distance information was exported and then processed using a Pipeline Pilot (Accelrys) protocol to calculate the percentage of scattered cells. The percent inhibition of the scattering phenotype was calculated relative to cells without compound treatment, plotted against the log of compound concentration and then fit to a four parameter logistic fit to obtain IC50 values.

IC50 | SMILES
15 to 550 nM | COCCOc1cnc(-c2cccc(Cc3nn(-c4cnn(C)c4)ccc3=S)c2)nc1 [Example 3, 3-{3-[5-(2-methoxyethoxy)pyrimidin-2-yl]benzyl}-1-(1-methyl-1H-pyrazol-4-yl)pyridazin-4(1H)-thione]
15 to 550 nM | CCCn1cnc(-c2cccc(Cc3nn(-c4cnn(CC)c4)ccc3=S)c2)n1 [Example 5, 1-(1-ethyl-1H-pyrazol-4-yl)-3-[3-(1-propyl-1H-1,2,4-triazol-3-yl)benzyl]pyridazin-4(1H)-thione]
15 to 550 nM | COCCOC(=O)Nc1cccc(Cc2nn(-c3cnn(C)c3)ccc2=S)c1 [Example 8, 2-methoxyethyl (3-{[1-(1-methyl-1H-pyrazol-4-yl)-4-thioxo-1,4-dihydropyridazin-3-yl]methyl}phenyl)carbamate]
15 to 550 nM | CCOc1cnc2ccc(OCc3nn(-c4cnn(C)c4)ccc3=S)cc2c1 [Example 19, 3-{[(3-Ethoxyquinolin-6-yl)oxy]methyl}-1-(1-methyl-1H-pyrazol-4-yl)pyridazin-4(1H)-thione]
15 to 550 nM | Cn1cc(-c2cnc3ccc(OCc4nn(-c5cnn(C)c5)ccc4=S)cc3c2)cn1 [Example 21, 1-(1-methyl-1H-pyrazol-4-yl)-3-({[3-(1-methyl-1H-pyrazol-4-yl)quinolin-6-yl]oxy}methyl)pyridazin-4(1H)-thione]
